ChEMBL document CHEMBL1201862, “PubChem BioAssay data set” (2004)
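Following 48 hours of exposure in 96-well plates, responses at five concentrations were used to interpolate endpoints linearly. GI50 marks 50% less growth.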 The source made the active and inactive calls. Rule as the data show it: active = GI50 up to about 1.1 µM and inactive = higher.

What was measured:
Assay in all cases: DTP human tumour cell line panel, 48 h
OVCAR-5 = system: OVCAR-5
A498 = system: A498
SK-MEL-5 = system: SK-MEL-5
BT-549 = system: BT-549
M14 = system: M14
A549 = system: A549
ACHN = system: ACHN
MOLT-4 = system: MOLT-4
HCT-15 = system: HCT-15
CCRF-CEM = system: CCRF-CEM
Malme-3M = system: Malme-3M
KM12 = system: KM12
NCI-H460 = system: NCI-H460
IGROV-1 = system: IGROV-1
HCT-116 = system: HCT-116
UACC-62 = system: UACC-62
NCI-H23 = system: NCI-H23
HOP-62 = system: HOP-62
SF-539 = system: SF-539
SW-620 = system: SW-620

Compound | GI50 (OVCAR-5) | GI50 (A498) | GI50 (SK-MEL-5) | GI50 (BT-549) | GI50 (M14) | GI50 (A549) | GI50 (ACHN) | GI50 (MOLT-4) | GI50 (HCT-15) [µM] | GI50 (CCRF-CEM) | GI50 (Malme-3M) | GI50 (KM12) | GI50 (NCI-H460) | GI50 (IGROV-1) | GI50 (HCT-116) | GI50 (UACC-62) | GI50 (NCI-H23) | GI50 (HOP-62) | GI50 (SF-539) | GI50 (SW-620)
O=C(O)CN(CC(=O)O)c1ccccc1 | > 100 µM (inactive) | > 100 µM (inactive) | 84.5 µM (inactive) | > 100 µM (inactive) | > 100 µM (inactive) | > 100 µM (inactive) | > 100 µM (inactive) | > 100 µM (inactive) | > 100 | 34 µM (inactive) | 45.8 µM (inactive) | 60.1 µM (inactive) | 71.1 µM (inactive) | > 100 µM (inactive) | 56.5 µM (inactive) | 32 µM (inactive) | 75.3 µM (inactive) | > 100 µM (inactive) | > 100 µM (inactive) | > 100 µM (inactive)
CC1(C)C(=O)C2(OS(=O)(=O)C(F)(F)F)CCC1C2 (stereo not given) | > 100 µM (inactive) | > 100 µM (inactive) | > 100 µM (inactive) | > 100 µM (inactive) | > 100 µM (inactive) | > 100 µM (inactive) | > 100 µM (inactive) | > 100 µM (inactive) | > 100 | > 100 µM (inactive) | > 100 µM (inactive) | > 100 µM (inactive) | > 100 µM (inactive) | > 100 µM (inactive) | > 100 µM (inactive) | > 100 µM (inactive) | > 100 µM (inactive) | > 100 µM (inactive) | > 100 µM (inactive) | > 100 µM (inactive)
COC(=O)C1=C(C)C=C(N2CCOCC2)C(C(=O)OC)C1c1ccccc1 (stereo not given) | > 10 µM (inactive) | > 10 µM (inactive) | > 10 µM (inactive) | > 10 µM (inactive) | > 10 µM (inactive) | > 10 µM (inactive) | > 10 µM (inactive) | > 10 µM (inactive) | > 10 | > 10 µM (inactive) | > 10 µM (inactive) | > 10 µM (inactive) | > 10 µM (inactive) | > 10 µM (inactive) | > 10 µM (inactive) | – | > 10 µM (inactive) | > 10 µM (inactive) | > 10 µM (inactive) | > 10 µM (inactive)
COC1(CC[C@@H](C)COC2OC(CO)C(O)C(O)C2O)O[C@H]2C[C@H]3[C@@H]4CC=C5C[C@@H](OC6OC(CO)C(OC7OC(C)C(O)C(O)C7O)C(O)C6OC6OC(C)C(O)C(O)C6O)CC[C@]5(C)[C@H]4CC[C@]3(C)[C@H]2[C@@H]1C (stereo not given in full) | 4.41 µM (inactive) | 10.2 µM (inactive) | 6.12 µM (inactive) | 3.52 µM (inactive) | 2.55 µM (inactive) | 2 µM (inactive) | 11.4 µM (inactive) | 21.7 µM (inactive) | 1.98 | 17.9 µM (inactive) | 3.01 µM (inactive) | 2.1 µM (inactive) | – | 4.59 µM (inactive) | – | – | 3.97 µM (inactive) | 2.56 µM (inactive) | 1.89 µM (inactive) | 1.14 µM (inactive)
CC(=O)C(C(=O)c1ccc(C)cc1)[C@@H]1OC(C)(C)O[C@@H]1[C@H]1COC(C)(C)O1 (stereo not given in full) | 40.9 µM (inactive) | 36.9 µM (inactive) | 12.1 µM (inactive) | 15 µM (inactive) | 11.3 µM (inactive) | 19.6 µM (inactive) | 9.59 µM (inactive) | 2.61 µM (inactive) | 8.3 | 1.27 µM (inactive) | 15.9 µM (inactive) | 4.02 µM (inactive) | 25.1 µM (inactive) | 12.7 µM (inactive) | 3.72 µM (inactive) | 10.9 µM (inactive) | 9.53 µM (inactive) | 10.5 µM (inactive) | 5.79 µM (inactive) | 3.55 µM (inactive)
CCOC(=O)C(C)c1nc2cc(N3CCOCC3)c(F)cc2[nH]c1=O (stereo not given) | > 100 µM (inactive) | > 100 µM (inactive) | > 100 µM (inactive) | > 100 µM (inactive) | > 100 µM (inactive) | > 100 µM (inactive) | > 100 µM (inactive) | > 100 µM (inactive) | > 100 | > 100 µM (inactive) | > 100 µM (inactive) | > 100 µM (inactive) | > 100 µM (inactive) | > 100 µM (inactive) | > 100 µM (inactive) | > 100 µM (inactive) | > 100 µM (inactive) | > 100 µM (inactive) | > 100 µM (inactive) | > 100 µM (inactive)
Cc1ccc(C2=CC(=O)/C(=C\C(=O)c3ccc(Br)cc3)O2)c(C)c1 | 23.7 µM (inactive) | 19.9 µM (inactive) | 14.5 µM (inactive) | 7.03 µM (inactive) | 11.6 µM (inactive) | 18.7 µM (inactive) | 4.57 µM (inactive) | 3.52 µM (inactive) | 12.2 | 2.69 µM (inactive) | 10.5 µM (inactive) | 20.4 µM (inactive) | 26.5 µM (inactive) | 18.4 µM (inactive) | 7.64 µM (inactive) | 9.48 µM (inactive) | 26.6 µM (inactive) | 42.4 µM (inactive) | 31.4 µM (inactive) | –
Cc1ccnc2[nH]c3ccccc3c(=O)c12 | 23.8 µM (inactive) | 28.8 µM (inactive) | 14 µM (inactive) | 30.1 µM (inactive) | 26.8 µM (inactive) | – | 20.5 µM (inactive) | 20.4 µM (inactive) | 25.5 | 36.6 µM (inactive) | 19.2 µM (inactive) | 13.1 µM (inactive) | 19 µM (inactive) | 17.5 µM (inactive) | 16.6 µM (inactive) | 16.9 µM (inactive) | 22.9 µM (inactive) | 43.8 µM (inactive) | 17.9 µM (inactive) | 35.9 µM (inactive)
NCCCN(CCCCN(CCCN)Cc1ccccc1)Cc1ccccc1 | 17.5 µM (inactive) | > 100 µM (inactive) | 57.8 µM (inactive) | 79.6 µM (inactive) | 41.6 µM (inactive) | 74.5 µM (inactive) | 32.4 µM (inactive) | 20.1 µM (inactive) | > 100 | 30.3 µM (inactive) | 33.3 µM (inactive) | 30.4 µM (inactive) | 15.3 µM (inactive) | 17.1 µM (inactive) | 30.8 µM (inactive) | > 100 µM (inactive) | 42.2 µM (inactive) | – | 27.6 µM (inactive) | > 100 µM (inactive)
CCOC(=O)c1nc2cc(C(F)(F)F)ccc2nc1Oc1ccc(C#N)cc1 | > 100 µM (inactive) | 69.8 µM (inactive) | 92.5 µM (inactive) | > 100 µM (inactive) | > 100 µM (inactive) | > 100 µM (inactive) | > 100 µM (inactive) | 63.2 µM (inactive) | > 100 | 70 µM (inactive) | > 100 µM (inactive) | > 100 µM (inactive) | > 100 µM (inactive) | > 100 µM (inactive) | 16.8 µM (inactive) | > 100 µM (inactive) | – | – | > 100 µM (inactive) | > 100 µM (inactive)
O=c1c(O)c(-c2cc(O)c(O)c(O)c2)oc2cc(O)cc(O)c12 [MYRICETIN] | 84.1 µM (inactive) | > 100 µM (inactive) | 31.5 µM (inactive) | 32.6 µM (inactive) | 32.1 µM (inactive) | 33.8 µM (inactive) | 79.8 µM (inactive) | 54.6 µM (inactive) | 24.8 | 64.6 µM (inactive) | > 100 µM (inactive) | 17.7 µM (inactive) | 20.4 µM (inactive) | 33.9 µM (inactive) | – | 39.5 µM (inactive) | 18.4 µM (inactive) | 20.3 µM (inactive) | > 100 µM (inactive) | 19.5 µM (inactive)
